From PMC10797628
Numbering of substitutions follows the chain as printed.

Tests used:
[1] = system: mouse model of fragile X syndrome; set-up: method as in PMID 32566916; conditions: cited from earlier work
[2] = set-up: method as in PMID 26011730; conditions: cited from earlier work
V3.33I 5-HT1A receptor = molecular target: T1, V3.33I 5-HT1A receptor (Homo sapiens, UniProt P08908, V117I); assay: cAMP accumulation in HEK293T cells, V3.33I 5-HT1A; type: cell-based; set-up: mutated in house (Quikchange II) HTR01A0000; host or cells: HEK293T; conditions: point-mutated receptor, 3 independent experiments, read-out: pEC50 5-HT1A Receptor V3.33I (converted)
T1 sequence (P08908 1-422 V117I): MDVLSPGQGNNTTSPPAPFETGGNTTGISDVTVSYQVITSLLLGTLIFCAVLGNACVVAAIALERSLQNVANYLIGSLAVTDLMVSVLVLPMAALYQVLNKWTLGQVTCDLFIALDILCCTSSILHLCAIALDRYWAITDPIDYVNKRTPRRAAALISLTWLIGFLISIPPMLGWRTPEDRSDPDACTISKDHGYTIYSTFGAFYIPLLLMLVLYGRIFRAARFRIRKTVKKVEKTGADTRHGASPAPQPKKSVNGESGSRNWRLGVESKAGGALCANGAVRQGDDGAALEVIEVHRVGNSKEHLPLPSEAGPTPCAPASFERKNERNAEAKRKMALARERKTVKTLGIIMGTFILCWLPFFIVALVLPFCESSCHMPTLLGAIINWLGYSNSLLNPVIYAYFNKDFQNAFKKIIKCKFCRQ
Method: (§1) Briefly, cells transfected with the desired receptor construct and compounds were incubated in the dark for 90 min at 37 °C. After incubation, cAMP detection reagents were added, and TR-FRET was used to quantify the cAMP produced.
(§2) The functional activity of compounds was determined by stimulating cells expressing the desired receptor with FSK and test compound in parallel with 12 known concentrations of cAMP. The known concentrations of cAMP were used to create a standard curve for each experiment that was used to interpolate the unknown values of cAMP in wells with test compounds. […] The EC50 and EMAX values were determined using the “dose response – log[agonist] vs response (three parameter)” nonlinear regression model in Prism and transformed to pEC50 values, reported as mean ± SD.
(§3) Summary of functional assay conditions at various 5-HT1 receptor point mutation constructs.

S5.42A 5-HT1A receptor = molecular target: T2, S5.42A 5-HT1A receptor (Homo sapiens, UniProt P08908, S199A); assay: cAMP accumulation in HEK293T cells, S5.42A 5-HT1A; type: cell-based; set-up: mutated in house (Quikchange II) HTR01A0000; host or cells: HEK293T; conditions: point-mutated receptor, 3 independent experiments, read-out: pEC50 5-HT1A Receptor S5.42A (converted)
T2 sequence (P08908 1-422 S199A): T1 sequence (P08908 1-422 V117I) with I117V, S199A
Method: as §1, §2, §3

Y5.38F 5-HT1A receptor = molecular target: T3, Y5.38F 5-HT1A receptor (Homo sapiens, UniProt P08908, Y195F); assay: Radioligand binding, Y5.38F 5-HT1A
T3 sequence (P08908 1-422 Y195F): T1 sequence (P08908 1-422 V117I) with I117V, Y195F
Method: (§4) 48 hours after transfection with the desired receptor construct, cells were isolated for saturation and competition binding assays as previously described.[47],[48],[57] Saturation and competition radioligand binding assays were conducted in an assay buffer consisting of 50 mM Tris HCl, 10 mM MgCl2, and 0.1 mM EDTA in filtered deionized water. […] Briefly, 5–10 μg of the receptor protein, as determined by a Thermo Fisher Pierce BCA protein assay kit, was incubated with 8 concentrations of radioligand in triplicate to determine total binding. […] Nonspecific binding was determined as above for saturation assays.
(§5) For radioligand binding data, nonspecific binding was subtracted from the total binding to get specific binding. Saturation binding data was fit to the “binding saturation-specific binding with hill slope” model. Competition binding data were fit to the “binding competition-one-site fit Ki” non-linear regression model and transformed to pKi values, reported as mean ± SD.
(§6) is 50 mM Tris HCl, 10 mM MgCl2 and 0.1 mM EDTA in filtered deionized water.

Y5.38A 5-HT1A receptor = molecular target: T4, Y5.38A 5-HT1A receptor (Homo sapiens, UniProt P08908, Y195A); assay: Radioligand binding, Y5.38A 5-HT1A
T4 sequence (P08908 1-422 Y195A): T1 sequence (P08908 1-422 V117I) with I117V, Y195A
Method: as §4, §5, §6

Row | SMILES | prosocial behaviors [1] | repetitive behaviors [1] | spontaneous seizures [1] | oral activity [2] | sedation [2] | EC50 (V3.33I 5-HT1A receptor) | EC50 (S5.42A 5-HT1A receptor) | Ki (Y5.38F 5-HT1A receptor) | Ki (Y5.38A 5-HT1A receptor)
1 | CN(C)[C@H]1CCc2c(cccc2-c2ccccc2F)C1 [(S)-FPT] | increased | reduced | reduced | orally active | did not cause sedation | – | – | – | –
2 | CN(C)[C@H]1CCc2c(cccc2-c2cccc3ccccc23)C1 [(S)-NAP] | – | – | – | – | – | 355 nM | 363 nM | 60.3 nM | 245 nM
3 | Fc1ccccc1-c1cccc2c1CC[C@H](N1CCCC1)C2 [(S)-PFPT] | – | – | – | – | – | 10.5 nM | 1.62 nM | 1.74 nM | 0.955 nM
